Here are results for seven compounds from ChEMBL document CHEMBL4814032, “Discovery of an indole-substituted furanone with tubulin polymerization inhibition activity” (Bioorg Med Chem Lett, 2021).

The subject of one assay is U-937. Kind of assay: Cytotoxicity against human U-937 cells by MTT assay. The class given is functional, cell-based.
For another assay, the target named is Tubulin (Homo sapiens) (UniProt P68371+Q9H4B7+P0DPH7+P68366+Q13509+Q71U36+P04350+Q3ZCM7+P07437+P68363+Q9BQE3+Q6PEY2+Q13885+Q9BVA1+Q9BUF5). Kind of assay: Inhibition of tubulin polymerization (unknown origin) at 10 uM. The class given is protein-complex assay.
Assay [1] addresses T1, Protein kinase C epsilon type (Homo sapiens) (UniProt Q02156).
T1 sequence (whole entry): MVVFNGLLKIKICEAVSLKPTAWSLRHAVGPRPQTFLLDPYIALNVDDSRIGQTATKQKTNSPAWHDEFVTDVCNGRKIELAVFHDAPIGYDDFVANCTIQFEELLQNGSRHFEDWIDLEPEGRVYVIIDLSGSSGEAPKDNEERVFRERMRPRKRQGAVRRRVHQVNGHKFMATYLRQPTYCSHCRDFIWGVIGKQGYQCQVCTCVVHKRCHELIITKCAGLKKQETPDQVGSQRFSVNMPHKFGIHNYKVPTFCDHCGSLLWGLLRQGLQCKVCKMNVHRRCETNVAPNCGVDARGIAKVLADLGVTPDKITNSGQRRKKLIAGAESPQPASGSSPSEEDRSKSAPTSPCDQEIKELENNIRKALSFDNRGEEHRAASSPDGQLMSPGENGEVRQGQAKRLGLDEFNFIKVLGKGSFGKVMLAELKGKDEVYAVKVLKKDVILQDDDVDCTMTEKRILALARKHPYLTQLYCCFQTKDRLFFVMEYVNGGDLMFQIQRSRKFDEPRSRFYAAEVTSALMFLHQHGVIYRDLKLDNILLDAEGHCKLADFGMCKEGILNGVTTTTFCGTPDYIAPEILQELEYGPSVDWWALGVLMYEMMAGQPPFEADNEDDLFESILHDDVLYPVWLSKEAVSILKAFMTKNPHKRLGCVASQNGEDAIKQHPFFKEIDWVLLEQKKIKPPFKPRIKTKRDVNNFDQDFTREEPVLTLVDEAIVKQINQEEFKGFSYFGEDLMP
Kind of assay: Binding affinity to PKCepsilon (unknown origin).

In assay [2] the target is Vascular endothelial growth factor receptor 3 (Homo sapiens) (UniProt P35916). The experiment in a line: Binding affinity to VEGFR3 (unknown origin).

The source made the active and inactive calls. No cut-off for these calls is given here.

Chain of Vascular endothelial growth factor receptor 3 (Homo sapiens) (P35916 whole entry): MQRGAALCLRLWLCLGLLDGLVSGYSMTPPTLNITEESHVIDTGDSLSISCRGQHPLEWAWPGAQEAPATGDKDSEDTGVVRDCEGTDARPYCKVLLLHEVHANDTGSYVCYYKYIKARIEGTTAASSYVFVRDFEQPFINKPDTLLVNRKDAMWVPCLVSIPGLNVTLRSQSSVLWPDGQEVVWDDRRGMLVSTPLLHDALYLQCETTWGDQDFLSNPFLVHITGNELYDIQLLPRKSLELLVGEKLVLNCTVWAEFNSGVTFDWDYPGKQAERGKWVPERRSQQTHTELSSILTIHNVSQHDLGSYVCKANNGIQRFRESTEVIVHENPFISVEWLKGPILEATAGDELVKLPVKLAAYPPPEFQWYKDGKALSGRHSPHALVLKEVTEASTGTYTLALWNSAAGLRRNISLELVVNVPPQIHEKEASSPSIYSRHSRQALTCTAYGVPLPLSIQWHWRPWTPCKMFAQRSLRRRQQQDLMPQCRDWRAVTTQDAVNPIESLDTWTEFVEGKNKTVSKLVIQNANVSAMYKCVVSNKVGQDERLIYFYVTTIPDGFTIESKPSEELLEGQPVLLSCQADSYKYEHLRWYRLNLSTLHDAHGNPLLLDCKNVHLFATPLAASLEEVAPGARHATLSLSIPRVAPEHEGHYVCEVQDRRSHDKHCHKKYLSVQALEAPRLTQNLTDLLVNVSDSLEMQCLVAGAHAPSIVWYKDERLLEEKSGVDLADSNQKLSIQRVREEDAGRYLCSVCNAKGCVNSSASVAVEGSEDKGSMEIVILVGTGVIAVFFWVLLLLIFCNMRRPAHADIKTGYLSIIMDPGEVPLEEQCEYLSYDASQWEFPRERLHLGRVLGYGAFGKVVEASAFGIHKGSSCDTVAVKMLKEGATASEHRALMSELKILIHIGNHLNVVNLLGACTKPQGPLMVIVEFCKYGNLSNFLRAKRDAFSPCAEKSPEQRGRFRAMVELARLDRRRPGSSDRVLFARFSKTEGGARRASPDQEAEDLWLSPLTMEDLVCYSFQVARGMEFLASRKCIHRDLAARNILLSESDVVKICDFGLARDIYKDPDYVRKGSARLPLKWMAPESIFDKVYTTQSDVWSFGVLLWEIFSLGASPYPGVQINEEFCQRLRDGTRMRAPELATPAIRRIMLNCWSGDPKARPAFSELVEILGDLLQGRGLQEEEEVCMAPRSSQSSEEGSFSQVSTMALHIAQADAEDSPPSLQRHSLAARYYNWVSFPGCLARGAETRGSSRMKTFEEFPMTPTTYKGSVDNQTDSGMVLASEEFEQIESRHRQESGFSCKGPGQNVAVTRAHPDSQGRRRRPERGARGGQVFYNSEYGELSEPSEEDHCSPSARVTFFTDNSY

As for `CCCN1CC(c2ccc(OC)c(OC)c2)=C(c2c[nH]c3ccccc23)C1=O`, the 50% inhibitory concentration (IC50) in the assay on U-937 was determined as 35 µM.

In the assay on U-937, `CCCN1CC(c2ccc(OC)c(OC)c2)=C(c2cn(C(=O)OCC)c3ccccc23)C1=O` registered an IC50 of 5 µM.

`COc1ccc(C2=C(c3cn(C)c4ccccc34)C(=O)OC2)cc1OC` had an IC50 with U-937 of 1 µM.

The compound `CCOC(=O)n1cc(C2=C(c3ccc(OC)c(OC)c3)COC2=O)c2ccccc21` yielded an IC50 in the assay with U-937 of 0.3 µM. Besides, the inhibition result at Tubulin (Homo sapiens) is “Active”.

Regarding `CCCN1CC(c2ccc(OC)c(OC)c2)=C(c2cn(C)c3ccccc23)C1=O`, the concentration for half-maximal inhibition (IC50) in the assay on U-937 worked out at 5 µM.

For the compound `COc1ccc(C2=C(c3c[nH]c4ccccc34)C(=O)OC2)cc1OC`, the IC50 with U-937 amounted to 9 µM.

For the compound `COc1ccc(C2=C(c3cn(C)c4ccccc34)C(=O)NC2)cc1OC`, the Activity came out at 47% in assay [1] and 50% in assay [2].
